These are literature values, as cited in patent publication US20170172905A1, “AGENT FOR TEMPORARILY RESHAPING KERATIN-CONTAINING FIBERS COMPRISING PRESERVATIVE” (Henkel AG & Co. KGaA, priority 2015, published 2017).

Consider `CCCCC(CC)CN1CN(CC(CC)CCCC)CC(C)(N)C1` (stereo not shown) [hexetidine, 5-amino-1,3-bis(2-ethylhexal)hexahydro-5-methylpyrimidine], for which the logP value is given as 5.25.
